Test results taken from patent publication US9187467B2, “2-phenyl benzothiazole linked imidazole compounds as potential anticancer agents and process for the preparation thereof” (Council of Scientific and Industrial Research, priority 2012, dated 2015).
Like-named read-outs stand apart in the source and are kept apart here.

Assays:
SR = experiment: SRB anticancer assay, leukemia; format: cell-based, human; details: Homo sapiens, 48 h
NCI-H226 = experiment: SRB anticancer assay, non-small lung; format: cell-based, human; details: Homo sapiens, NCI-H226, 48 h
NCI-H23 = experiment: SRB anticancer assay, non-small lung; format: cell-based, human; details: Homo sapiens, NCI-H23, 48 h
NCI-H460 = experiment: SRB anticancer assay, non-small lung; format: cell-based, human; details: Homo sapiens, NCI-H460, 48 h
HCT-116 = experiment: SRB anticancer assay, colon; format: cell-based, human; details: Homo sapiens, HCT-116, 48 h
SNB-75 = experiment: SRB anticancer assay, CNS; format: cell-based, human; details: Homo sapiens, SNB-75, 48 h
U251 = experiment: SRB anticancer assay, CNS; format: cell-based, human; details: Homo sapiens, U-251; U251, 48 h
IGROV1 = experiment: SRB anticancer assay, ovarian; format: cell-based, human; details: Homo sapiens, IGROV-1; IGROV1, 48 h
OVCAR-3 = experiment: SRB anticancer assay, ovarian; format: cell-based, human; details: Homo sapiens, OVCAR-3, 48 h
NCI/ADR-RES = experiment: SRB anticancer assay, ovarian; format: cell-based, human; details: Homo sapiens, NCI/ADR-RES, 48 h
A498 = experiment: SRB anticancer assay, renal; format: cell-based, human; details: Homo sapiens, A498, 48 h
SN12C = experiment: SRB anticancer assay, renal; format: cell-based, human; details: Homo sapiens, 48 h
T-47D = experiment: SRB anticancer assay, breast; format: cell-based; details: Homo sapiens, T47D, 48 h
Breast cancer cell lines = experiment: SRB anticancer assay, panel result; format: cell-based, human
In short: (§1)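 Each compound is profiled per cell line over five or more concentrations at tenfold spacing. Exposure lasts 48 h without washout, and the sulforhodamine B method quantifies cellular protein as a growth measure.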

Colon cancer cell lines = experiment: SRB anticancer assay, panel result; format: cell-based, human
In short: as §1

[1] = tested on: Melanoma cancer cell lines; experiment: SRB anticancer assay, panel result; format: cell-based, human
In short: as §1

[2] = tested on: Non-small cell lung cancer cell lines; experiment: SRB anticancer assay, panel result; format: cell-based, human
In short: as §1

[3] = tested on: Ovarian cancer cell lines; experiment: SRB anticancer assay, panel result; format: cell-based, human
In short: as §1

[4] = tested on: Prostate cancer cell lines; experiment: SRB anticancer assay, panel result; format: cell-based, human; details: Prostate panel
In short: as §1

Renal cancer cell lines = experiment: SRB anticancer assay, panel result; format: cell-based, human
In short: as §1

K562 (Leukemia) cells = experiment: Cell cycle distribution by flow cytometry; format: cell-based
Experimental: (§2) In order to investigate the mechanism underlying the anti-proliferative effect of the compounds the cell cycle distribution was analyzed in K562 (Leukemia) and MCF-7 (Breast carcinoma) cell lines by flow cytometry. Compounds CA-4, 21a, 21d, 4c, 6d, 6e, 6f, 7d, 7h and 7j have shown 1.72%, 14%, 12%, 14%, 12%, 14%, 14%, 16%, 16% &12% in K562 cells and 49.63%, 21%, 20%, 18%, 21%, 21%, 21%, 24%, 23% and 23% in MCF-7 cell line respectively. […] Thus compound 7d was considered for further studies (FIG. 1).

[5] = tested on: MCF-7 (Breast carcinoma) cells; experiment: Cell cycle distribution by flow cytometry (FACS); format: cell-based; details: MCF-7 cells, 2 μM, 24h
Experimental: FIG. 1 represents FACS analysis of cell cycle distribution of MCF-7 cells after treatment with compounds CA-4, 21a, 21d, 4c, 6d, 6e, 6f, 7d, 7h and 7j at 2 μM concentration for 24h and control cells are the cells treated with DMSO (0.25%).
as §2

COc1cc(OC)cc(-c2cncn2-c2ccc(-c3nc4cc(OC)cc(OC)c4s3)cc2)c1 [Compound 6d, 2-(4-(5-(3,5-Dimethoxyphenyl)-1H-imidazol-1-yl)phenyl)-5,7-dimethoxybenzo[d]thiazole]
GI50 (SR): 3.3 µM | GI50 (NCI-H226): 18.5 µM | GI50 (NCI-H23): 10.3 µM | GI50 (NCI-H460): 4.41 µM | GI50 (HCT-116): 4.93 µM | GI50 (SNB-75): 3.28 µM | GI50 (U251): 4.76 µM | GI50 (IGROV1): 5.07 µM | GI50 (OVCAR-3): 2.87 µM | GI50 (NCI/ADR-RES): 2.58 µM | GI50 (A498): 3.15 µM | GI50 (SN12C): > 100 µM | GI50 (T-47D): 3.17 µM | mean graph midpoint value (MG_MID) of log10 TGI (Breast cancer cell lines; Breast panel, total inhibition of net cell growth): >−4.0 | CC50 (Breast cancer cell lines; Homo sapiens, Breast panel, 50% net cell death, read-out: mean graph midpoint value (MG_MID) of Log10 LC50 (converted)): > 100 µM | GI50 (Breast cancer cell lines; Homo sapiens, Breast panel, read-out: mean graph midpoint value (MG_MID) of Log10 GI50 (converted)): 4.57 µM | GI50 (Breast cancer cell lines; Homo sapiens, six breast cancer cell lines, exposure at least 48 h, read-out: GI50, range over the panel): 3.09 to 9.01 µM | mean graph midpoint value (MG_MID) of log10 TGI (Colon cancer cell lines; Colon panel, total inhibition of net cell growth): >−4.0 | LC50 (Colon cancer cell lines; Homo sapiens, Colon panel, 50% net cell death, read-out: mean graph midpoint value (MG_MID) of Log10 LC50 (converted)): > 100 µM | GI50 (Colon cancer cell lines; Homo sapiens, Colon panel, read-out: mean graph midpoint value (MG_MID) of Log10 GI50 (converted)): 13.2 µM | GI50 (Colon cancer cell lines; Homo sapiens, seven colon cancer cell lines, exposure at least 48 h, read-out: GI50, range over the panel): 4.52 to 4.93 µM | LC50 ([1]; Homo sapiens, Melanoma panel, 50% net cell death, read-out: mean graph midpoint value (MG_MID) of Log10 LC50 (converted)): > 100 µM | GI50 ([1]; Homo sapiens, Melanoma panel, read-out: mean graph midpoint value (MG_MID) of Log10 GI50 (converted)): 10.5 µM | GI50 ([1]; Homo sapiens, nine melanoma cancer cell lines, exposure at least 48 h, read-out: GI50, range over the panel): 1.53 to 9.69 µM | mean graph midpoint value (MG_MID) of log10 TGI ([1]; Melanoma panel, total inhibition of net cell growth): >−4.0 | LC50 ([2]; Homo sapiens, Non-small cell lung panel, 50% net cell death, read-out: mean graph midpoint value (MG_MID) of Log10 LC50 (converted)): > 100 µM | GI50 ([2]; Homo sapiens, Non-small cell lung panel, read-out: mean graph midpoint value (MG_MID) of Log10 GI50 (converted)): 10.5 µM | GI50 ([2]; Homo sapiens, nine Non-small cell lung cancer cell lines, exposure at least 48 h, read-out: GI50, range over the panel): 2.49 to 18.5 µM | mean graph midpoint value (MG_MID) of log10 TGI ([2]; Non-small cell lung panel, total inhibition of net cell growth): −4.05 | LC50 ([3]; Homo sapiens, Ovarian panel, 50% net cell death, read-out: mean graph midpoint value (MG_MID) of Log10 LC50 (converted)): > 100 µM | GI50 ([3]; Homo sapiens, Ovarian panel, read-out: mean graph midpoint value (MG_MID) of Log10 GI50 (converted)): 7.94 µM | GI50 ([3]; Homo sapiens, seven ovarian cancer cell lines, exposure at least 48 h, read-out: GI50, range over the panel): 2.87 to 14.5 µM | mean graph midpoint value (MG_MID) of log10 TGI ([3]; Ovarian panel, total inhibition of net cell growth): >−4.0 | LC50 ([4]; Homo sapiens, 50% net cell death, read-out: mean graph midpoint value (MG_MID) of Log10 LC50 (converted)): > 100 µM | GI50 ([4]; Homo sapiens, read-out: mean graph midpoint value (MG_MID) of Log10 GI50 (converted)): > 100 µM | mean graph midpoint value (MG_MID) of log10 TGI ([4]; total inhibition of net cell growth): >−4.0 | CC50 (Renal cancer cell lines; Homo sapiens, Renal panel, 50% net cell death, read-out: mean graph midpoint value (MG_MID) of Log10 LC50 (converted)): > 100 µM | GI50 (Renal cancer cell lines; Homo sapiens, Renal panel, read-out: mean graph midpoint value (MG_MID) of Log10 GI50 (converted)): 12.9 µM | GI50 (Renal cancer cell lines; Homo sapiens, eight renal cancer cell lines, exposure at least 48 h, read-out: GI50, range over the panel): 2.13 to 16.8 µM | mean graph midpoint value (MG_MID) of log10 TGI (Renal cancer cell lines; Renal panel, total inhibition of net cell growth): >−4.0 | cells in G2/M phase (K562 (Leukemia) cells): 12% | cells in G2/M phase [5]: 21%
